pEC50: −log10 of the molar value.
What was measured:
Assay type in all cases: cell-based
[1] = target: T1, human β1-adrenergic receptor (Homo sapiens, UniProt P08588); assay: Test Case 2-B: human β1-adrenergic receptor agonist activity; conditions: for β1 receptor I.A.: Test Case 2-B, maximum response of isoproterenol = 100%; for Emax: read-out: β1 receptor I.A.
T1 construct: expressed in transfected cells; host or cells: CHO (Chinese hamster ovary) cells, pcDNA3
Experimental: Measurement of Human β1-Adrenergic Receptor Agonist Activity
The human β1-adrenergic receptor agonist activity is measured by the same method as in Test Case 1-B using CHO (Chinese hamster ovary) cells transfected by a human β1 gene inserted in pcDNA3 (Invitrogen).

[2] = target: T2, human α1A-adrenergic receptor (Homo sapiens, UniProt P35348); assay: Test Case 4-A: human α1A-adrenergic receptor agonist activity (HEK293, Ca flux, Fura-2); parameters: expressed in transfected cells; host or cells: HEK293 cells, pcDNA3.1; conditions: for α1A receptor I.A.: maximum response of norepinephrine = 100%; for Emax: HEK293, read-out: α1A receptor I.A.
T2 sequence (P35348 1-466): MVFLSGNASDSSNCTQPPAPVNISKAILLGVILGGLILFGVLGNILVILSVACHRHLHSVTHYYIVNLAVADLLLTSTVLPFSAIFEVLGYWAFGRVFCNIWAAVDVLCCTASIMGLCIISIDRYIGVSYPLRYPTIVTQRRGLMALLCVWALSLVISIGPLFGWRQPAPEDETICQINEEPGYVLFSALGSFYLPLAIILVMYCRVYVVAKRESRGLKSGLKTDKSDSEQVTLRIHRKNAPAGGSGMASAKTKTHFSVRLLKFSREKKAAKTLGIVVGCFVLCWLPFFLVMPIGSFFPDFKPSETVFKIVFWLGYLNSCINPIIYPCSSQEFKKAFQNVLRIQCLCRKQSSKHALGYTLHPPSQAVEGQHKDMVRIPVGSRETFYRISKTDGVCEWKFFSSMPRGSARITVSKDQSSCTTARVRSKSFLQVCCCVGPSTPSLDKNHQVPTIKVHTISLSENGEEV
Experimental: (§1) Measurement of Human α1A-Adrenergic Receptor Agonist Activity
The human α1A-adrenergic receptor agonist activity is measured using HEK293 cells transfected by a human α1A gene inserted in pcDNA3.1 (Invitrogen). […] After loading for 30 minutes in a CO2 incubator, the excess Fura-2AM is removed by washing twice with assay buffer. After preparing the centrifuged cells to make 5×10^6 cells/mL by assay buffer, 80 μL/well is dispensed into 96-well UV plates (made by Corning) to make cell plates. Sample plates with the test compound diluted 10-fold by assay buffer from 10^−5 to 10^−12 M and cell plates are set in an FDSS4000 (made by Hamamatsu Photonics). After preincubating for 180 seconds, measurement of fluorescence intensity (excitation wavelength 340 nm, 380 nm, measurement wavelength 500 nm) is begun at 2-second intervals. After approximately 30 seconds of measurement, 20 μL of test sample from a sample plate is added to the cell plate, and measurement is continued for another 270 seconds. The Ca flux caused by the test compound is calculated taking the difference in the maximum value of the fluorescence intensity ratio at 340 nm and 380 nm after adding the test compound and the fluorescence intensity ratio before adding the test compound as the peak height.

[3] = target: T3, human β3-adrenergic receptor (Homo sapiens, UniProt P13945); assay: Test Case 1-B: human β3-adrenergic receptor agonist activity (cAMP-Screen, 96-well); conditions: for pEC50 / β3 receptor I.A.: Test Case 1-B; for pEC50: CHO cells, cAMP; for β3 receptor I.A.: maximum response of isoproterenol = 100%; for Emax: 0.5 h, read-out: β3 receptor I.A.
T3 construct: A full-length human β3 gene is obtained from a human genomic library (made by Clontech) using this as the probe; expressed in transfected cells; host or cells: CHO (Chinese hamster ovary) cells, pcDNA3
T3 sequence (P13945 whole entry): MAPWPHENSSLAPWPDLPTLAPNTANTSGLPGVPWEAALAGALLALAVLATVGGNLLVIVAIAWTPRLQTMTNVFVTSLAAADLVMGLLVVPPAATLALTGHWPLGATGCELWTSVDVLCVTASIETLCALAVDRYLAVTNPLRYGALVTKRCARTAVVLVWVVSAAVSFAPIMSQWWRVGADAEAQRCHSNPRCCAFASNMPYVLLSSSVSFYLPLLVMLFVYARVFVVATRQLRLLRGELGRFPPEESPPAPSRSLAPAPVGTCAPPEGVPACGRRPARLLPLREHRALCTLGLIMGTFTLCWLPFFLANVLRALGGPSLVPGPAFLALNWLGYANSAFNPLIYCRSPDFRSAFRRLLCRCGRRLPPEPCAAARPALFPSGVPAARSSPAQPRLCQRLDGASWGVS
Experimental: Measurement of Human β3-Adrenergic Receptor Agonist Activity
The human β3-adrenergic receptor agonist activity is measured using CHO (Chinese hamster ovary) cells transfected by a human β3 gene inserted in pcDNA3 (Invitrogen). […] A full-length human β3 gene is obtained from a human genomic library (made by Clontech) using this as the probe. These cells are cultured in Ham's F-12 medium containing 10% fetal calf serum and 400 μg/mL genectin (Invitrogen). These cells are sown in 96-well plates to make 2×10^4 cells/well. After culturing for approximately 20 hours, they are allowed to stand for 15 minutes in 80 μL of serum-free Ham's F-12 medium. After first dissolving the test compound by DMSO, it is serially diluted by Ham's F-12 containing 100 mmol/L HEPES and 1 mmol/L isobutylmethylxanthine, and 20 μL is added to the cells. After culturing for 30 minutes, the medium is removed, and 0.1 mL of the assay/lysis buffer contained in the cAMP-Screen kit (made by Applied Bioscience) is added and incubated for 30 minutes at 37° C. The cAMP in this cell lysate is assayed by the above cAMP-Screen kit.

[4] = target: T4, human β2-adrenergic receptor (Homo sapiens, UniProt P07550); assay: Test Case 3-B: human β2-adrenergic receptor agonist activity; conditions: for β2 receptor I.A.: Test Case 3-B, maximum response of isoproterenol = 100%; for Emax: read-out: β2 receptor I.A.
T4 construct: expressed in transfected cells; host or cells: CHO (Chinese hamster ovary) cells, pcDNA3
T4 sequence (P07550 whole entry): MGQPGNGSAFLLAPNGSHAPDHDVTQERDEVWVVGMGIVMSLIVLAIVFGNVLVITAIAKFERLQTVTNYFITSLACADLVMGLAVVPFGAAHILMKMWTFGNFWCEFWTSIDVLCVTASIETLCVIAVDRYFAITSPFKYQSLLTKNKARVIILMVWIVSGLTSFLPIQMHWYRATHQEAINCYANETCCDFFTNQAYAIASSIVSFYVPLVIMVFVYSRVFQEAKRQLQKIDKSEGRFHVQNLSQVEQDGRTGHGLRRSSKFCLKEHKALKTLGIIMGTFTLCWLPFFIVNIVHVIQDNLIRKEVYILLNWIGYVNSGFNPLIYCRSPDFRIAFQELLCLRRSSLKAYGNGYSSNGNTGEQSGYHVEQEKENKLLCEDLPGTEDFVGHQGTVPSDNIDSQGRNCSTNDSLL
Experimental: Measurement of Human β2-Adrenergic Receptor Agonist Activity
The human β2-adrenergic receptor agonist activity is measured by the same method as in Test Case 1-B using CHO (Chinese hamster ovary) cells transfected by a human β2 gene inserted in pcDNA3 (Invitrogen).

[5] = target: T2, human α1A-adrenergic receptor; assay: Test Case 4-B: human α1A-adrenergic receptor agonist activity (Cerep cellular functional GPCR, alpha 1A); parameters: expressed in transfected cells; conditions: concentration 10 μM; for α1 receptor % of Control Agonist Response, Control; Epinephrine: epinephrine = 100%
From the text: as §1
The human α1A-adrenergic receptor agonist activity] can be measured by […] Functional GPCR·Gs, alpha 1A (Ref. 722-36a) listed on p. 52 of the Cerep 2008 CATALOG IN VITRO PHARMACOLOGY & ADME-TOX.

T1 sequence (P08588 whole entry): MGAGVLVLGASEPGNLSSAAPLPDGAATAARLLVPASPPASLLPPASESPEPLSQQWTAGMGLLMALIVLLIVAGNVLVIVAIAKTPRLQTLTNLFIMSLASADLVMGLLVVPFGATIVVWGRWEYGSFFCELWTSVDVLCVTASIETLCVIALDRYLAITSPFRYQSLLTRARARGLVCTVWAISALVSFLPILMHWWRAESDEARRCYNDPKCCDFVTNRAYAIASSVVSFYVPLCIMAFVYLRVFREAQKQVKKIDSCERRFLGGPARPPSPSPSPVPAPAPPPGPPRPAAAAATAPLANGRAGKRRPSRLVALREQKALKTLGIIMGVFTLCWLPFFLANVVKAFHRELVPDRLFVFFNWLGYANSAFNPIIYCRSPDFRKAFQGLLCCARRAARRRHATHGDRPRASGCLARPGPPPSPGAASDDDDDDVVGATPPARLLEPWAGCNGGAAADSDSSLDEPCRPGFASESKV

| Compound | β1 receptor I.A. [1] | α1A receptor I.A. ([2]; Test Case 4-A, Table 4) | pEC50 [3] | β3 receptor I.A. [3] | β2 receptor I.A. [4] | Emax [1] | Emax [2] | Emax [3] | Emax [4] | pEC50 ([2]; Test Case 4-A, HEK293 cells, Ca flux, Table 4) | α1 receptor % of Control Agonist Response, Control; Epinephrine [5] | α1 receptor % of Control Agonist Response, Control; Norepinephrine ([5]; norepinephrine = 100%) |
| --- | --- | --- | --- | --- | --- | --- | --- | --- | --- | --- | --- | --- |
| COc1cccc(S(=O)(=O)Nc2cccc([C@@H](O)CNCCOc3ccc4c(OC)n[nH]c4c3)c2)c1 [ex43, (R)-N-(3-(1-hydroxy-2-(2-(3-methoxyindazol-6-yloxy)ethylamino)ethyl)phenyl)-3-methoxybenzene-sulfonamide] | −2% | 0% | 7.82 | 65% | −5% |  |  |  |  |  |  |  |
| CCc1n[nH]c2cc(OCCNC[C@H](O)c3cccc(NS(=O)(=O)c4cccc(N)c4)c3)ccc12 [ex118, (R)-3-amino-N-(3-(2-(2-(3-ethylindazol-6-yloxy)-ethylamino)-1-hydroxyethyl)-phenyl) benzenesulfonamide] |  |  | 9.60 |  |  | 13% | 0% | 77% | -1% |  |  |  |
| Cc1n[nH]c2cc(OCCNC[C@H](O)c3cccc(NS(=O)(=O)c4cccc(O)c4)c3)ccc12 [ex236, (R)-3-hydroxy-N-(3-(1-hydroxy-2-(2-(3-methylindazol-6-yloxy)ethylamino)ethyl)phenyl)benzenesulfonamide] |  |  | 9.00 |  |  | 11% | 0% | 58% | 5% |  |  |  |
| O=S(=O)(Nc1cccc([C@@H](O)CNCCOc2ccc3c(C(F)(F)F)n[nH]c3c2)c1)C1CC1 [ex181, (R)-N-(3-(1-hydroxy-2-(2-(3-(trifluoromethyl)indazol-6-yloxy)ethylamino)ethyl)phenyl) cyclopropane-sulfonamide] |  |  | 7.80 |  |  | 1% | 4% | 80% | 8% |  |  |  |
| COc1n[nH]c2cc(OCCNC[C@H](O)c3cccc(NS(=O)(=O)c4cccnc4)c3)ccc12 [ex12, (R)-N-(3-(1-hydroxy-2-(2-(3-methoxyindazol-6-yloxy)ethylamino)ethyl)phenyl)pyridine-3-sulfonamide] |  |  | 7.51 |  |  | 5% | 0% | 52% | 5% |  |  |  |
| COc1n[nH]c2cc(OCCNC[C@H](O)c3cccc(NS(=O)(=O)C4CC4)c3)ccc12 [ex47, (R)-N-(3-(1-hydroxy-2-(2-(3-methoxyindazol-6-yloxy)-ethylamino)ethyl)phenyl)cyclo-propanesulfonamide] | 3% | 28% | 7.39 | 72% | 16% |  |  |  |  | 5.91 |  |  |
| COc1n[nH]c2cc(OCCNC[C@H](O)c3cccc(NS(=O)(=O)C4CC4)c3)ccc12 [ex17, (R)-N-( ? -(1-hydroxy-2-(2-(3-methoxyindazol-6-yloxy)ethylamino)ethyl)phenyl)cy ?] |  |  | 7.41 |  |  | 1% | 13% | 70% | 12% |  |  |  |
| CNC[C@H](O)c1ccc(O)c(O)c1 [Epinephrine, epinephrine, reference compound] |  |  |  |  |  |  |  |  |  |  | 100% |  |
| Nc1cccc(S(=O)(=O)Nc2cccc([C@@H](O)CNCCOc3ccc4c(Cl)n[nH]c4c3)c2)c1 [ex153, (R)- ? -amino-N-(3-(2-(2-(3-chloroindazol-6-yloxy)-ethylamino)-1-hydroxyethyl)-phenyl) benzenesulfonamide] |  |  | 9.66 |  |  | 12% | 0% | 95% | 13% |  |  |  |
| Nc1cccc(S(=O)(=O)Nc2cccc([C@@H](O)CNCCOc3ccc4c(OC(F)F)n[nH]c4c3)c2)c1 [ex104] |  |  | 9.38 |  |  | 8% | 0% | 116% | 4% |  |  |  |
| COc1n[nH]c2cc(OCCNC[C@H](O)c3cccc(NS(=O)(=O)c4cccc(Cl)c4)c3)ccc12 [ex13, (R)-3-chloro-N-(3-(1-hydroxy-2-(2-( ? - methoxyindazol-6-yloxy)ethylamino)ethyl)phenyl) benzenesulfonamide] |  |  | 8.03 |  |  | 4% | 0% | 82% | -4% |  |  |  |
| COc1n[nH]c2cc(OCCNC[C@H](O)c3cccc(NS(=O)(=O)c4cccc(Cl)c4)c3)ccc12 [ex42, (R)-3-chloro-N-(3-(1-hydroxy-2-(2-(3-methoxyindazol-6-yloxy)ethylamino)ethyl)phenyl) benzenesulfonamide] | 4% | 0% | 8.42 | 83% | 0% |  |  |  |  |  |  |  |
| COc1n[nH]c2cc(OCCNC[C@H](O)c3cccc(NS(=O)(=O)c4cccc(N)c4)c3)ccc12 [ex1, (R)-3-amino-N-(3-(1-hydroxy-2-(2-(3-methoxyindazol-6-yloxy)ethylamino)ethyl)phenyl)benzenesulfonamide] |  |  | 9.28 |  |  | 6% | 0% | 110% | 1% |  |  |  |
| NC[C@H](O)c1ccc(O)c(O)c1 [Norepinephrine, reference compound] |  | 100% |  |  |  |  | 100% |  |  |  | 116% | 100% |
| O=S(=O)(Nc1cccc([C@@H](O)CNCCOc2ccc3c(C(F)(F)F)n[nH]c3c2)c1)c1ccccc1F [ex189, (R)-2-fluoro-N-(3-(1-hydroxy-2-(2-(3-(trifluoromethyl)-indazol-6-yloxy)ethylamino)ethyl)phenyl)benzene-sulfonamide] |  |  | 7.07 |  |  |  | 1% | 91% |  |  |  |  |
| CCc1n[nH]c2cc(OCCNC[C@H](O)c3cccc(NS(=O)(=O)c4ccsc4)c3)ccc12 [ex123, (R)-N-(3-(2-(2-(3-ethylindazol-6-yloxy)ethylamino)-1-hydroxyethyl)phenyl) thiophene-3-sulfonamide] |  |  | 9.17 |  |  |  | 0% | 50% |  |  |  |  |
| Cc1n[nH]c2cc(OCCNC[C@H](O)c3cccc(NS(=O)(=O)c4ccccc4Cl)c3)ccc12 [ex51, (R)-2-chloro-N-(3-(1-hydroxy-2-(2-(3-methylindazol-6-yloxy)ethylamino)ethyl)phenyl)ben-zenesulfonamide] |  |  | 6.84 |  |  |  | 0% | 64% |  |  |  |  |
| O=S(=O)(Nc1cccc([C@@H](O)CNCCOc2ccc3c(C4CC4)n[nH]c3c2)c1)C1CC1 [ex227, (R)-N-(3-(2-(2-(3-cyclopropylindazol-6-yloxy)ethylamino)-1-hydroxyethyl)phenyl)-cyclopropane-sulfonamide] |  | 1% | 7.51 | 65% |  |  |  |  |  |  |  |  |
